Data published in patent publication US9902986B2, “Enterobactin conjugates and uses thereof” (Massachusetts Institute of Technology, priority 2013, dated 2018).

Key:
[1] = test system: uropathogenic E. coli and non-pathogenic E. coli; assay: Mixed culture assays (summary), uropathogenic and non-pathogenic E. coli; type: cell-based, Escherichia coli; details: uropathogenic with non-pathogenic E. coli
Text: No antibiotic marker was included in these cultures.

[2] = test system: E. coli CFT073 in the presence of S. aureus 25923; assay: Co-culture of E. coli CFT073 and S. aureus 25923; type: cell-based, Escherichia coli; details: co-culture in a 1:1 ratio
Text: (FIG. 20A) Images showing three cultures untreated with any antibiotics: E. coli CFT073, S. aureus 25923, and E. coli CFT073 and S. aureus 25923 co-culture (in a 1:1 ratio). (FIG. 20B) Images showing co-cultures of E. coli CFT073 and S. aureus 25923 (in a 1:1 ratio), in the absence of any antibiotics or in the presence of Amp, Amx, Ent-Amp, or Ent-Amx.

Row | SMILES | strain-specific growth inhibition in the mixed culture assays [1] | killing of E. coli CFT073 co-cultured with S. aureus 25923 [2]
1 | CC1(C)SC2C(NC(=O)C(NC(=O)CCCc3cn(CCOCCOCCOCCNC(=O)c4cc(O)c(O)c(C(=O)NC5COC(=O)C(NC(=O)c6cc(C7OC(CO)C(O)C(O)C7O)cc(O)c6O)COC(=O)C(NC(=O)c6cc(C7OC(CO)C(O)C(O)C7O)cc(O)c6O)COC5=O)c4)nn3)c3ccccc3)C(=O)N2C1C(=O)O (stereo not shown) [DGE-Amp] | specifically inhibited the growth of the uropathogenic E. coli | 
2 | CC1(C)SC2C(NC(=O)C(NC(=O)CCCc3cn(CCOCCOCCOCCNC(=O)c4cc(O)c(O)c(C(=O)NC5COC(=O)C(NC(=O)c6cccc(O)c6O)COC(=O)C(NC(=O)c6cccc(O)c6O)COC5=O)c4)nn3)c3ccc(O)cc3)C(=O)N2C1C(=O)O (stereo not drawn) [Ent-Amx] |  | killed E. coli CFT073
3 | CC1(C)SC2C(NC(=O)C(NC(=O)CCCc3cn(CCOCCOCCOCCNC(=O)c4cc(O)c(O)c(C(=O)NC5COC(=O)C(NC(=O)c6cccc(O)c6O)COC(=O)C(NC(=O)c6cccc(O)c6O)COC5=O)c4)nn3)c3ccccc3)C(=O)N2C1C(=O)O (stereo not drawn) [Ent-Amp] |  | killed E. coli CFT073
4 | CC1(C)SC2C(NC(=O)C(NC(=O)CCCc3cn(CCOCCOCCOCCNC(=O)c4cc(O)c(O)c(C(=O)NC5COC(=O)C(NC(=O)c6cc(C7OC(CO)C(O)C(O)C7O)cc(O)c6O)COC(=O)C(NC(=O)c6cccc(O)c6O)COC5=O)c4)nn3)c3ccccc3)C(=O)N2C1C(=O)O (stereo not shown) [MGE-Amp] | specifically inhibited the growth of the uropathogenic E. coli | 
